The target in series [1] is Nitric oxide synthase, inducible (Homo sapiens, UniProt P35228). Briefly: Inhibition of human iNOS assessed as inhibition of [3H]L-arginine to [3H]L-citrulline conversion by scintillation counting.
The target of series [2] is T1, Nitric oxide synthase 3 (Homo sapiens, UniProt P29474).
T1 sequence (P29474 whole entry): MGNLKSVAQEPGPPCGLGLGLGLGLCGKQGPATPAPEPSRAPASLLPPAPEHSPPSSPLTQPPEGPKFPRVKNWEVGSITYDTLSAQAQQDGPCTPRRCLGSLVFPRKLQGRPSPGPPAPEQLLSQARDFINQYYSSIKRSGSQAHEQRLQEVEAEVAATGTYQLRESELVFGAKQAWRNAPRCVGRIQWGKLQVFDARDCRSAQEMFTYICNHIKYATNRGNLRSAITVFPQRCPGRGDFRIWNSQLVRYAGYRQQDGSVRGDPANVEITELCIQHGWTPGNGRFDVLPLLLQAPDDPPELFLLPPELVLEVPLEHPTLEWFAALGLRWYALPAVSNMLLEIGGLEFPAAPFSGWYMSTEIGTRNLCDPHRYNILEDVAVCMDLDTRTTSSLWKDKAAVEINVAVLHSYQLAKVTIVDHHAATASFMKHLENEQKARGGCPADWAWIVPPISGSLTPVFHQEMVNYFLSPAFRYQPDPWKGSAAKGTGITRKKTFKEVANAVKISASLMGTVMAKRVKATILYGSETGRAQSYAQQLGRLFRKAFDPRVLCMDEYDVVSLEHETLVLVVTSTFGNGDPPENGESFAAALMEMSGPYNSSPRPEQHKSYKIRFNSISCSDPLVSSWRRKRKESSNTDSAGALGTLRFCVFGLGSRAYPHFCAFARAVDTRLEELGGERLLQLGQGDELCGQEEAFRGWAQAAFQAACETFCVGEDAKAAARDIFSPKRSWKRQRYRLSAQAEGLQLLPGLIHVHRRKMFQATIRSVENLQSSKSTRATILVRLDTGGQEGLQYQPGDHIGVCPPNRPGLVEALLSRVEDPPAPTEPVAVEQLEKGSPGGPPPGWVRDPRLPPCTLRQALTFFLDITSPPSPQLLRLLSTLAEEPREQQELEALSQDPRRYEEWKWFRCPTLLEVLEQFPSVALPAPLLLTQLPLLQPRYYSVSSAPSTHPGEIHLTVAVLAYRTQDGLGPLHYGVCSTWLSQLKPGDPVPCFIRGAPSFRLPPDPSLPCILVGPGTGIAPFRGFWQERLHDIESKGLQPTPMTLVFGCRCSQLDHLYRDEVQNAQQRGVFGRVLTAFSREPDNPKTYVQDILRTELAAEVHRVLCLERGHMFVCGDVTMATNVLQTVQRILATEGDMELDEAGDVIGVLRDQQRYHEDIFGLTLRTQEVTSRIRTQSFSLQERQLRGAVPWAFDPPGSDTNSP
Briefly: Inhibition of human eNOS assessed as inhibition of [3H]L-arginine to [3H]L-citrulline conversion by scintillation counting.

The target of series [3] is Nitric oxide synthase 1 (Homo sapiens, UniProt P29475). Description: Inhibition of human nNOS assessed as inhibition of [3H]L-arginine to [3H]L-citrulline conversion by scintillation counting.
Nitric oxide synthase 1, sequence (P29475 whole entry): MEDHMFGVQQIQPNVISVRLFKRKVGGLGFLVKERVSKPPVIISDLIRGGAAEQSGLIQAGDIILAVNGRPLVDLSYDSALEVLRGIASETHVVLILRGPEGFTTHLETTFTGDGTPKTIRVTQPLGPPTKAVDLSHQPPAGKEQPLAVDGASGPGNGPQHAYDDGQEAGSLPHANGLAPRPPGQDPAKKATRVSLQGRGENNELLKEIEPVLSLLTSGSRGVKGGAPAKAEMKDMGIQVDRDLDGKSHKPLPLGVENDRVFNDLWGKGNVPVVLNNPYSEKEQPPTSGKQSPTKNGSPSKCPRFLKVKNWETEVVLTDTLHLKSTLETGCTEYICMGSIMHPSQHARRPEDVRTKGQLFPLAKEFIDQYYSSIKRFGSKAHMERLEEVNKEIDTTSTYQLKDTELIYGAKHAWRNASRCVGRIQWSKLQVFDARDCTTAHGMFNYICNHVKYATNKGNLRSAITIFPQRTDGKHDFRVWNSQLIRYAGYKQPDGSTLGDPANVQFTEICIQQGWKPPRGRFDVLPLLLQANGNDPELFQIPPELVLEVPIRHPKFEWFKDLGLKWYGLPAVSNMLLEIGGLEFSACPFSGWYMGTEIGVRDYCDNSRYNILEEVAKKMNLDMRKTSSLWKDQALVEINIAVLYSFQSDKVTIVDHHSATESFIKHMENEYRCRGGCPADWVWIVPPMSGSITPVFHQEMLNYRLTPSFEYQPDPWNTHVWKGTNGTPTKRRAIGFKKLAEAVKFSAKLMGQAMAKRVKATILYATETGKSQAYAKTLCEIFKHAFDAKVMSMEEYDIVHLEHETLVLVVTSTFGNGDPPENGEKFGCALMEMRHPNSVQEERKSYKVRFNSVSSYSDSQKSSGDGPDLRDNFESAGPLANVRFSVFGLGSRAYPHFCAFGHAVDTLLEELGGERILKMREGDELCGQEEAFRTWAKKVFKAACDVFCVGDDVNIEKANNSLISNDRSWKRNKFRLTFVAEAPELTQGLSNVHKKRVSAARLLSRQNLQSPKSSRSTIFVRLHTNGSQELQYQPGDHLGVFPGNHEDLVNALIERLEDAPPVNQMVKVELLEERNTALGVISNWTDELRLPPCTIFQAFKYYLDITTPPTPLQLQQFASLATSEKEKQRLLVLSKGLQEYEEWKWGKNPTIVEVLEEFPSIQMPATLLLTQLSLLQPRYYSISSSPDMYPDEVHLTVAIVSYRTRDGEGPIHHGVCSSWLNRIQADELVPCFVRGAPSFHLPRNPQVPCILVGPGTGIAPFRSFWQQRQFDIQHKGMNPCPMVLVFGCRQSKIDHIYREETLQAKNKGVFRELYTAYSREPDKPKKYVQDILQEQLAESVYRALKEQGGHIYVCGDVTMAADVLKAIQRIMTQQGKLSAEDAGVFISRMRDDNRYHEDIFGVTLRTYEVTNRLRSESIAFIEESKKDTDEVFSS
The target in series [4] is T2, Nitric oxide synthase, inducible (Mus musculus) (UniProt P29477).
T2 sequence (whole entry): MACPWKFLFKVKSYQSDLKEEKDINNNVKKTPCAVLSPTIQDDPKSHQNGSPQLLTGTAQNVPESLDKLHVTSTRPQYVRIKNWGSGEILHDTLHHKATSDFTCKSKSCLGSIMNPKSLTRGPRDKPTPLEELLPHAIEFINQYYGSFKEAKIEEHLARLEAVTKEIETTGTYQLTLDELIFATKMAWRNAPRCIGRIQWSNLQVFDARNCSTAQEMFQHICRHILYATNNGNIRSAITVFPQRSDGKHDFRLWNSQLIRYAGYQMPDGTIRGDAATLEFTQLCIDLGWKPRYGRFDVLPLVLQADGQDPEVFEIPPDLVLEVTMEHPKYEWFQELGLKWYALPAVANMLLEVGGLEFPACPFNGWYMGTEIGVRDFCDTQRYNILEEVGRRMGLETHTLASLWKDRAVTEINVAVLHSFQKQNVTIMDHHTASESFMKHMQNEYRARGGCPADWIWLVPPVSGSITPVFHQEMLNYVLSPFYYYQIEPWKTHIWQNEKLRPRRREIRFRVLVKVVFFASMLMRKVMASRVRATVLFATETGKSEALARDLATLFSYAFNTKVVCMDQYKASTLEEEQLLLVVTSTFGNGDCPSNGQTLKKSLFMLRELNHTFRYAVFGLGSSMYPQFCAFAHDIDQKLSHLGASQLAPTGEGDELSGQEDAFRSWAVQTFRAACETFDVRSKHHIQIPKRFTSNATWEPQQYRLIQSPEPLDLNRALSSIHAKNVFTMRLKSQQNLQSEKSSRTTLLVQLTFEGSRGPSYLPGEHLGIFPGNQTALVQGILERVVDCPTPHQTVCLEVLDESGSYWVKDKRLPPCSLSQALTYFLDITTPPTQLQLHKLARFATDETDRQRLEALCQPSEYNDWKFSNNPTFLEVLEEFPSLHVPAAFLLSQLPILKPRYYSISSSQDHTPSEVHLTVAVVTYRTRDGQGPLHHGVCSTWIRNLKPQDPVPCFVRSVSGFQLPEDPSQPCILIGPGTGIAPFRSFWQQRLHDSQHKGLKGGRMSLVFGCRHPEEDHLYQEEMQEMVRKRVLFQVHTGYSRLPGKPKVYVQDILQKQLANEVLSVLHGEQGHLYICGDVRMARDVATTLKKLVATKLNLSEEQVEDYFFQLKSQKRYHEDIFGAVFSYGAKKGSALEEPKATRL
Description: Binding affinity to mouse iNOSox L-arginine binding site by X-ray crystallography.

Series [5] in a line: Inhibition of CYP. Format: ADME.
Series [6] can be described thus: Absolute oral bioavailability in rat. Conditions: in vivo. Format: ADME, organism-based.
Series [7] in a line: Cmax in rat. Format: ADME, organism-based. Conditions: in vivo.
Series [8] can be described thus: Clearance in rat. The class given is ADME, organism-based. Conditions: in vivo.
Series [9] concerns the target Cytochrome P450 2C9 (Homo sapiens, UniProt P11712). Briefly: Inhibition of CYP2C9. Format: ADME.

The values that follow come from ChEMBL document CHEMBL1799930, “Novel nanomolar imidazo[4,5-b]pyridines as selective nitric oxide synthase (iNOS) inhibitors: SAR and structural insights” (Bioorg Med Chem Lett, 2011).

Calls of active or inactive are those of the source. No cut-off for these calls is given here. A value given as a limit tells only on which side of the number the result lay.

Broadly, the IC50 is the concentration at which inhibition is half-maximal. In general, pIC50 refers to the IC50 on a negative log10 scale, so that one unit is a factor of ten. Low values mean a large IC50, high ones a small IC50. Broadly, the bioavailability is dose-corrected exposure relative to a reference, in per cent. Low values mean little systemic uptake, high ones much systemic uptake. The Cmax is the peak of the concentration-time curve. The clearance is the rate of elimination divided by the concentration. Low readings indicate inefficient removal, high ones efficient removal. The term Ki denotes the equilibrium dissociation constant of an inhibitor or competing ligand from its target.

Nitric oxide synthase, inducible, sequence (P35228 whole entry): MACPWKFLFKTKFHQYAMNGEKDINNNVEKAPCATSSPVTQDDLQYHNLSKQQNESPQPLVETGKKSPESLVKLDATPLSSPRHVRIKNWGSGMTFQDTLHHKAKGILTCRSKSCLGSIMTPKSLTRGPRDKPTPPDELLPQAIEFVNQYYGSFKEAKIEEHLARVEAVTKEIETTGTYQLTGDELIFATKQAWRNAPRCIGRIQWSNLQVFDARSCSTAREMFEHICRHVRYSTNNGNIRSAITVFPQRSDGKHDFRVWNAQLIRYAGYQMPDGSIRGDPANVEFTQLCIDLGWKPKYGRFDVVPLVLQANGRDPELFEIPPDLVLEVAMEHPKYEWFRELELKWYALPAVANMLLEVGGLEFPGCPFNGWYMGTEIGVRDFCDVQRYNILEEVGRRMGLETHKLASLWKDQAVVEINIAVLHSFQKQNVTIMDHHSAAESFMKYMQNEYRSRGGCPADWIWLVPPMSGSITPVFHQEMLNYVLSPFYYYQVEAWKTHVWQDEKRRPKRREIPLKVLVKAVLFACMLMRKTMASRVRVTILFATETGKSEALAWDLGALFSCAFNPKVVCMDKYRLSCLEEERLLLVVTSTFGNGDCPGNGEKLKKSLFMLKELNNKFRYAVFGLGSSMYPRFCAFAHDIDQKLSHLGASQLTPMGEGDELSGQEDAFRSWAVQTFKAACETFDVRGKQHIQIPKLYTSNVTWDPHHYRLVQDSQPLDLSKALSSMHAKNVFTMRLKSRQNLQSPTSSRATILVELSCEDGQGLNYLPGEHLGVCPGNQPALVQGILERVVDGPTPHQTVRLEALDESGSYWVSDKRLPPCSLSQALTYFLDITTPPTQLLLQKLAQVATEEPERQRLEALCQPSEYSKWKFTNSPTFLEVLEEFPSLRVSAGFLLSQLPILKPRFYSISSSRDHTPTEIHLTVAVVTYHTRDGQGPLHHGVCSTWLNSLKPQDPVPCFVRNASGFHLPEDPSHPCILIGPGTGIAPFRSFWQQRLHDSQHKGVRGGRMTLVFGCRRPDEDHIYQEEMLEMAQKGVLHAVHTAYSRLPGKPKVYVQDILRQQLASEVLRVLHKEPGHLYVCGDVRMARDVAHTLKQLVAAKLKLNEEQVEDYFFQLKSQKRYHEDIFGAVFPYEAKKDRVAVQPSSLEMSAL
Cytochrome P450 2C9, sequence (P11712 whole entry): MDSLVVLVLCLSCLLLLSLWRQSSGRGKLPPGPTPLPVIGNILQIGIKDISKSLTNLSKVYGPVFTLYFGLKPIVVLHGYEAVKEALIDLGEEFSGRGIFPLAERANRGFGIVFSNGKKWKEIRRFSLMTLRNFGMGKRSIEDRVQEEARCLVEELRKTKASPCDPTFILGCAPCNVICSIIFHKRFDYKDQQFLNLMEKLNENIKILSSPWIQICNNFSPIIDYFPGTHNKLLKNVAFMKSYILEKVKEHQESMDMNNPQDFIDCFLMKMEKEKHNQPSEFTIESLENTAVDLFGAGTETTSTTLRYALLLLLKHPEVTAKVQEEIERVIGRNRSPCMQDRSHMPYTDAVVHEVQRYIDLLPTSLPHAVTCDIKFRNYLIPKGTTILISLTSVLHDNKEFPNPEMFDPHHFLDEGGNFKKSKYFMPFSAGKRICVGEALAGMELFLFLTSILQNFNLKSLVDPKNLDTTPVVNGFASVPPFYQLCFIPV

In the case of `COc1ccnc(CSC)c1OC`, the IC50 in [1], in series [2] and in [3] was greater than 100 µM throughout.

Take `COc1ccnc(CSc2nc3ccncc3[nH]2)c1`: the 50% inhibitory concentration (IC50) in [1] was 49 µM; in [2], greater than 100 µM; in series [3], greater than 100 µM.

Turning to `COc1ccnc(CCc2nc3cccnc3[nH]2)c1`, the result in series [4] was Active. In series [5], this molecule returned a pIC50 of less than 4.

Turning to `COc1ccnc(CCc2nc3ncccc3[nH]2)c1`, the bioavailability in [6] came out at 48%. Further, the Cmax in [7] stood at 2240 ng/mL. Moreover, the IC50 is 112 µM in [2], 13.8 µM in [3] and 3.16 µM in series [9]. This molecule also had a clearance in series [8] of 36.8 mL/min/kg.

For the molecule `COc1ccnc(CCc2nc3c(C)ccnc3[nH]2)c1`, the IC50 in [1] was 0.145 µM; in [2] it was 45.7 µM; in series [3], 18.6 µM.

As for `COc1ccnc(CCc2nc3c(OCCc4ccccc4)ccnc3[nH]2)c1`, the results for the IC50 in series [1], in [2] and in series [3] were 0.724 µM, 66.1 µM and 13.8 µM, respectively.

Turning to `COc1ccnc(CSC)c1`, the IC50 in series [1] was 0.155 µM; in series [2], 1.07 µM; in [3] it was 0.447 µM.

For the molecule `COc1ccnc(CCc2nc3cc(Br)cnc3[nH]2)c1`, the IC50 in series [1] was 0.186 µM; in series [2], 87.1 µM; in series [3] it was 8.32 µM.

Consider `CC(=N)NCCCC[C@H](N)C(=O)Nc1nnn[nH]1`, for which the IC50 in [1], in [2] and in series [3] was greater than 100 µM each time.

With `COc1ccnc(CSc2nc3ccccc3[nH]2)c1`, the IC50 in series [1] was 10.7 µM; in series [2], 26.3 µM; in series [3] it was 26.9 µM.

`C[C@H]1CC(=N)N[C@@H]2[C@H](Cl)[C@@H]21`: the Ki was 0.00186 µM in [1] and 0.0186 µM in [2].

For the molecule `COc1ccnc(NC2CCN(C(=O)c3ccc(C#N)nc3)CC2)c1`, the IC50 in series [1] was 0.0708 µM; in series [2] it was greater than 100 µM; in series [3], 6.61 µM.

On to `COc1ccnc(CCc2nc3cc(-c4ccccc4)cnc3[nH]2)c1`, for which the IC50 in series [2] was 18.2 µM; in series [3] it was 1.2 µM.

With `COCCOc1ccnc2[nH]c(CCc3cc(OC)ccn3)nc12`, the IC50 in [1] was 0.513 µM; in series [2], 204 µM; in [3], 123 µM.

With `CC(=N)NCCCC[C@H](N)C(=O)O` [L-NIL], the IC50 in series [1] was 4.68 µM; in [2] it was greater than 100 µM.

Regarding `COc1ccnc(CSc2nc3cccnc3[nH]2)c1`, the results for the IC50 in series [1], in series [2] and in [3] were 0.115 µM, 53.7 µM and 3.39 µM, respectively.

In the case of `COc1ccnc(CCc2nc3c(OC)ccnc3[nH]2)c1`, the IC50 was 0.776 µM in series [1], 204 µM in [2] and 58.9 µM in [3].

As for `COc1ccnc(CCc2nc3c(C)cc(C)nc3[nH]2)c1`, the IC50 in series [1] was 2.29 µM; in [2], greater than 100 µM; in series [3], 12.6 µM.

For `CCCCc1cnc2[nH]c(CCc3cc(OC)ccn3)nc2c1`, the concentration for half-maximal inhibition (IC50) is 0.055 µM in series [1], 87.1 µM in series [2] and 1.91 µM in series [3].

On to `COc1cnc(CSC)cc1OC`, for which the 50% inhibitory concentration (IC50) in [1], in series [2] and in series [3] was greater than 100 µM each time.

On to `COc1ccnc(CCc2nc3ccc(OC)nc3[nH]2)c1`, for which the IC50 was 0.38 µM in series [1], 100 µM in series [2] and 26.3 µM in series [3].
